Results taken from patent US7868204B2, “Inhibitors of histone deacetylase” (MethylGene Inc., priority 2001, dated 2011).
Where two headings read alike, the source gives them in different places. One block for each compound: values may come before it.

What was measured:
[1] = molecular target: T1, cloned recombinant human HDAC-1 (Homo sapiens, UniProt Q13547); experiment: Human HDAC-1 enzyme inhibition, Assay 1 ([3H]-acetylated histone substrate, scintillation counting); format: biochemical
T1 construct: made in house; host or cells: Baculovirus insect cell expression system
Method: Assay 1. HDAC inhibitors were screened against a cloned recombinant human HDAC-1 enzyme expressed and purified from a Baculovirus insect cell expression system. […] The mixture was extracted with ethyl acetate and the released [^3H]-acetic acid was quantified by scintillation counting. For inhibition studies, the enzyme was preincubated with compounds at 4° C. for 30 minutes prior to initiation of the enzymatic assay. IC50 values for HDAC enzyme inhibitors were determined by performing dose response curves with individual compounds and determining the concentration of inhibitor producing fifty percent of the maximal inhibition.

HCT116 cells = experiment: MTT assay; format: cell-based; conditions: Homo sapiens, HCT116 cells, 72 hours
Method: HCT116 cells (2000/well) were plated into 96-well tissue culture plates one day before compound treatment. Compounds at various concentrations were added to the cells. The cells were incubated for 72 hours at 37° C. in 5% CO2 incubator. MTT (3-[4,5-dimethylthiazol-2-yl]-2,5 diphenyl tetrazolium bromide, Sigma) was added at a final concentration of 0.5 mg/ml and incubated with the cells for 4 hours before one volume of solubilization buffer (50% N,N-dimethylformamide, 20% SDS, pH 4.7) was added onto the cultured cells. […] OD values were converted to cell numbers according to a standard growth curve of the relevant cell line.

[2] = Table 5a, read-out: Human HDAC-1 IC50
[3] = Table 5c, read-out: Human HDAC-1 IC50
[4] = Table 5E, read-out: Human HDAC-1 IC50
[5] = Table 5F, read-out: Human HDAC-1 IC50
[6] = Table 5b, read-out: Human HDAC-1 IC50

T1 sequence (Q13547 whole entry): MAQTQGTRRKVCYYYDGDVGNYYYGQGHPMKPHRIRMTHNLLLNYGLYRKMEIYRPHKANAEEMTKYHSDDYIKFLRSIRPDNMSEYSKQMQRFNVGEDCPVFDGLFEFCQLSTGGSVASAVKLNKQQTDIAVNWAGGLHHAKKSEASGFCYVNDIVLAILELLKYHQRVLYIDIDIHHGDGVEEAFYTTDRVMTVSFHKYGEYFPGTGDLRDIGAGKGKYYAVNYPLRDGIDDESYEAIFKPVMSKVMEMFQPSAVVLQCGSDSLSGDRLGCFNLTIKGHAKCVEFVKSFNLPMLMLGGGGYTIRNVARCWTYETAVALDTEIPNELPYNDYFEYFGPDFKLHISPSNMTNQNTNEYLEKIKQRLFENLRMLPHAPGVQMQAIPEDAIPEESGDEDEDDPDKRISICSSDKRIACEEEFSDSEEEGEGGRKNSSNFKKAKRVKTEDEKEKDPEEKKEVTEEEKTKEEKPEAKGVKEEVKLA

Structure (SMILES): Nc1ccccc1NC(=O)c1ccc(CNc2nc(N3CCCCC3)nc(N3CCCCC3)n2)cc1 [Cpd 26, N-(2-Amino-phenyl)-4-[(4,6-di-piperidin-1-yl-[1,3,5]triazin-2-ylamino)-methyl]-benzamide]
IC50 [1, 2]: 0.5 µM
IC50 (HCT116 cells; HCT-116, 72 h, Table 5a): 2 µM

Structure (SMILES): Nc1ccccc1NC(=O)c1ccc(CNc2nc(NCCc3ccccc3)nc(NC3Cc4ccccc4C3)n2)cc1 [Cpd 27]
IC50 [1, 2]: 0.4 µM
IC50 (HCT116 cells; HCT-116, 72 h, Table 5a): 2 µM

Structure (SMILES): COc1cccc(-c2ccc(C(=O)Nc3ccccc3N)cn2)c1 [Cpd 141, N-(2-Amino-phenyl)-6-(3-methoxyphenyl)-nicotinamide]
IC50 [1, 4]: 7 µM
IC50 (HCT116 cells; HCT-116, 72 h, Table 5E): 10 µM

Structure (SMILES): C=C(C)C#Cc1ccc(C(=O)Nc2ccccc2N)cc1 [Cpd 193]
IC50 [1, 5]: 4 µM
IC50 (HCT116 cells; HCT-116, 72 h, Table 5F): 16 µM

Structure (SMILES): COc1cc(-c2ccc3sc(NCc4ccc(C(=O)Nc5ccccc5N)cc4)nc3c2)cc(OC)c1OC [Cpd 194]
IC50 [1, 5]: 3 µM

Structure (SMILES): CC(C)(O)C#Cc1ccc(C(=O)Nc2ccccc2N)cc1 [Cpd 195]
IC50 [1, 5]: 7 µM
IC50 (HCT116 cells; HCT-116, 72 h, Table 5F): 9 µM

Structure (SMILES): Nc1ccccc1NC(=O)c1ccc(C#Cc2ccccc2)cc1 [Cpd 196]
IC50 [1, 5]: 4 µM
IC50 (HCT116 cells; HCT-116, 72 h, Table 5F): 3 µM

Structure (SMILES): C[Si](C)(C)C#Cc1ccc(C(=N)Nc2ccccc2N)cc1 [Cpd 198]
IC50 [1, 5]: 24 µM
IC50 (HCT116 cells; HCT-116, Table 5F): 14 µM

Structure (SMILES): Nc1ccccc1NC(=O)c1ccc(C#CC(c2ccc(Cl)cc2)N2CCOCC2)cc1 (stereo not shown) [Cpd 201]
IC50 [1, 5]: 11 µM
IC50 (HCT116 cells; HCT-116, 72 h, Table 5F): 5 µM

Structure (SMILES): Cc1nc(NCc2ccc(C(=O)Nc3ccccc3N)cc2)nc(NC2Cc3ccccc3C2)n1 [Cpd 218]
IC50 [1, 6]: 0.1 µM
IC50 (HCT116 cells; HCT-116, 72 h, Table 5b): 0.5 µM

Structure (SMILES): Nc1nc(N)nc(/C=C/c2ccc(C(=O)Nc3ccccc3N)cc2)n1 [Cpd 220]
IC50 [1, 6]: 7 µM
IC50 (HCT116 cells; HCT-116, 72 h, Table 5b): 6 µM

Structure (SMILES): Nc1nc(/C=C/c2ccc(C(=O)Nc3ccccc3N)cc2)nc(N2CCCCC2)n1 [Cpd 223]
IC50 [1, 6]: 11 µM
IC50 (HCT116 cells; HCT-116, 72 h, Table 5b): 2 µM

Structure (SMILES): Nc1nc(CCc2ccc(C(=O)Nc3ccccc3N)cc2)nc(N2CCCCC2)n1 [Cpd 224]
IC50 [1, 6]: 5 µM
IC50 (HCT116 cells; HCT-116, 72 h, Table 5b): 3 µM

Structure (SMILES): Nc1ccccc1NC(=O)c1ccc(CSc2nc3cc(OCCN4CCOCC4)ccc3[nH]2)cc1 [Cpd 236]
IC50 [1, 5]: 5 µM
IC50 (HCT116 cells; HCT-116, 72 h, Table 5F): 6 µM

Structure (SMILES): Nc1ccccc1NC(=O)c1ccc(N2CCOCC2)cc1 [Cpd 238]
IC50 [1, 5]: 3 µM
IC50 (HCT116 cells; HCT-116, 72 h, Table 5F): 6 µM

Structure (SMILES): Nc1ccccc1NC(=O)c1ccc(CN2CCOCC2)cc1 [Cpd 328]
IC50 [1, 5]: 17 µM
IC50 (HCT116 cells; HCT-116, 72 h, Table 5F): 10 µM

Structure (SMILES): Nc1nc(NCc2ccc(C(=O)Nc3ccccc3N)cc2)c2nc[nH]c2n1 [Cpd 331, N-(2-Amino-phenyl)-4-[(2-amino-9H-purin-6-ylamino)-methyl]-benzamide]
IC50 [1, 5]: 4 µM
IC50 (HCT116 cells; HCT-116, 72 h, Table 5F): 10 µM

Structure (SMILES): Nc1ccccc1NC(=O)c1ccc(Cn2cnc3cc(F)c(F)cc3c2=O)cc1 [Cpd 339, N-(2-Amino-phenyl)-4-(6,7-difluoro-4-oxo-4H-quinazolin-3-ylmethyl)-benzamide]
IC50 [1, 5]: 4 µM
IC50 (HCT116 cells; HCT-116, 72 h, Table 5F): 3 µM

Structure (SMILES): COc1ccc(NCc2ccc(C(=O)Nc3cc(C(F)(F)F)ccc3N)cc2)cc1OC [Cpd 453, N-(2-Amino-5-trifluoromethyl-phenyl)-4-[(3,4-dimethoxy-phenylamino)-methyl]-benzamide]
IC50 (HCT116 cells; HCT-116, 72 h, Table 5F): 37 µM

Structure (SMILES): Nc1ccccc1NC(=O)c1ccc(-c2ccc(CNC3Cc4ccccc4C3)s2)cc1 [Cpd 465]
IC50 [1, 5]: 2 µM

Structure (SMILES): COc1cc2c(cc1OC)CN(c1ccc(/C=C/C(=O)Nc3ccccc3N)cc1)CC2 [Cpd 498, N-(2-Amino-phenyl)-3-[4-(6,7-dimethoxy-3,4-dihydro-1H-isoquinolin-2-yl)-phenyl]-acrylamide]
IC50 ([1]; Table 5d, read-out: HDAC-1 IC50): > 25 µM

The next lines start with the values.

IC50 [1, 3]: 22 µM
IC50 (HCT116 cells; HCT-116, 72 h, Table 5c): 4 µM
Structure (SMILES): COc1ccc(CNc2cccc(/C=C/C(=O)Nc3ccccc3N)n2)cc1 [Cpd 51, N-(2-aminophenyl)-3-[6-(4-methoxy-benzylamino)-pyridin-2-yl]-acrylamide]

IC50 [1, 3]: 12 µM
IC50 (HCT116 cells; HCT-116, 72 h, Table 5c): 22 µM
Structure (SMILES): COc1cc(CNCc2ccc(/C=C/C(=O)Nc3ccccc3N)cc2)cc(OC)c1OC [Cpd 59, N-(2-aminophenyl)-3-{4-[(3,4,5-trimethoxy-benzylamino)-methyl]-phenyl}-acrylamide]

IC50 [1, 3]: 7 µM
IC50 (HCT116 cells; HCT-116, 72 h, Table 5c): 12 µM
Structure (SMILES): COc1ccc(CNc2ccc(/C=C(\C)C(=O)Nc3ccccc3N)cn2)cc1 [Cpd 61b, N-(2-aminophenyl)-3-[6-(4-methoxy-benzylamino)-pyridin-3-yl]-2-methyl-acrylamide]

IC50 (HCT116 cells; HCT-116, 72 h, Table 5c): 37 µM
Structure (SMILES): COc1ccc(CNc2ccc(/C=C/C(=O)Nc3ccccc3N)cc2)cc1 [Cpd 65, N-(2-aminophenyl)-3-{4-(4-methoxy-benzylamino)-phenyl}-acrylamide]

IC50 [1, 3]: 10 µM
IC50 (HCT116 cells; HCT-116, 72 h, Table 5c): 44 µM
Structure (SMILES): Nc1ccccc1NC(=O)/C=C/c1ccc(NC/C=C/c2ccccc2)cc1 [Cpd 71]

IC50 [1, 3]: 16 µM
IC50 (HCT116 cells; HCT-116, 72 h, Table 5c): 21 µM
Structure (SMILES): COc1ccc(C(=O)Nc2ccc(/C=C/C(=O)Nc3ccccc3N)cc2)cc1 [Cpd 72, N-(4-[2-(2-Amino-phenylcarbamoyl)-vinyl]-phenyl}-4-methoxy-benzamide]

IC50 (HCT116 cells; HCT-116, 72 h, Table 5c): > 39 µM
Structure (SMILES): COc1ccc(CNc2ccc3cc(/C=C/C(=O)Nc4ccccc4N)ccc3n2)cc1 [Cpd 88, N-(2-aminophenyl)-3-[2-(4-methoxy-benzylamino)-quinolin-6-yl]-acrylamide]

IC50 [1, 3]: 10 µM
IC50 (HCT116 cells; HCT-116, 72 h, Table 5c): 12 µM
Structure (SMILES): Nc1ccccc1NC(=O)/C=C/c1ccc(NCCCn2ccnc2)nc1 [Cpd 97, N-(2-aminophenyl)-3-[6-(3-imidazol-1-yl-propylamino)-pyridin-3-yl]-acrylamide]

IC50 [1, 3]: 20 µM
IC50 (HCT116 cells; HCT-116, 72 h, Table 5c): 6 µM
Structure (SMILES): NCc1cccc(CNc2ccc(/C=C/C(=O)Nc3ccccc3N)cn2)c1 [Cpd 102, 3-[6-(3-aminomethyl-benzylamino)-pyridin-3-yl]-N-(2-aminophenyl)-acrylamide]

IC50 [1, 3]: 16 µM
IC50 (HCT116 cells; HCT-116, 72 h, Table 5c): 14 µM
Structure (SMILES): Nc1ccccc1NC(=O)/C=C/c1ccc(CCNC(=O)OCc2cccnc2)cc1 [Cpd 105]

IC50 [1, 3]: 15 µM
IC50 (HCT116 cells; HCT-116, 72 h, Table 5c): 17 µM
Structure (SMILES): COc1cc(CN(C)Cc2ccc(/C=C/C(=O)Nc3ccccc3N)cc2)cc(OC)c1OC [Cpd 107]

IC50 [1, 3]: 3 µM
Structure (SMILES): Nc1ccccc1NC(=O)/C=C/c1ccc(CSc2ccc3ccccc3n2)cc1 [Cpd 110, N-(2-Amino-phenyl)-3-[4-(quinolin-2-ylsulfanylmethyl)-phenyl]-acrylamide]

IC50 [1, 3]: 10 µM
IC50 (HCT116 cells; HCT-116, 72 h, Table 5c): 2 µM
Structure (SMILES): Nc1ccccc1NC(=O)/C=C/c1ccc(NCc2cccnc2)cc1 [Cpd 111, N-(2-amino-phenyl)-3-{4-[(pyridin-3-ylmethyl)-amino]-phenyl}-acrylamide]

IC50 [1, 3]: 25 µM
IC50 (HCT116 cells; HCT-116, 72 h, Table 5c): 0.5 µM
Structure (SMILES): COc1ccc(C(=O)Nc2ccc(/C=C/C(=O)Nc3ccccc3N)cn2)cc1 [Cpd 114]

IC50 [1, 3]: 15 µM
IC50 (HCT116 cells; HCT-116, 72 h, Table 5c): 9 µM
Structure (SMILES): Nc1ccc(CNc2ncc(/C=C/C(=O)Nc3ccccc3N)cn2)cc1 [Cpd 115, 3-[2-(4-amino-benzylamino)-pyrimidin-5-yl]-N-(2-amino-phenyl)-acrylamide]

IC50 [1, 3]: 7 µM
IC50 (HCT116 cells; HCT-116, 72 h, Table 5c): 3 µM
Structure (SMILES): Cc1ccc(CNc2ccc(/C=C/C(=O)Nc3ccccc3N)cn2)cc1 [Cpd 117, N-(2-Amino-phenyl)-3-[6-(4-methyl-benzylamino)-pyridin-3-yl]-acrylamide]

IC50 [1, 3]: 11 µM
IC50 (HCT116 cells; HCT-116, 72 h, Table 5c): 8 µM
Structure (SMILES): COc1ccc(CNc2ncc(/C=C/C(=O)Nc3ccccc3N)cn2)cc1 [Cpd 118, N-(2-amino-phenyl)-3-[2(4-methoxy-benzylamino)-pyrimidin-5-yl]-acrylamide]

IC50 [1, 4]: 0.3 µM
IC50 (HCT116 cells; HCT-116, 72 h, Table 5E): 11 µM
Structure (SMILES): Nc1ccccc1NC(=O)c1ccc(CCN2C(=O)c3ccccc3C2=O)cc1 [Cpd 152, N-(2-Amino-phenyl)-4-[2-(1,3-dioxo-1,3-dihydro-isoindol-2-yl)-ethyl]-benzamide]

IC50 [1, 5]: 1.8 µM
IC50 (HCT116 cells; HCT-116, 72 h, Table 5F): 10 µM
Structure (SMILES): N#C/N=C(\NCc1ccc(C(=O)Nc2ccccc2N)cc1)Nc1ccncc1 [Cpd 240]

IC50 [1, 6]: 4 µM
Structure (SMILES): Cc1nc(NCCc2ccccc2)nc(NCc2ccc(C(=O)Nc3ccccc3N)cc2)n1 [Cpd 483, N-(2-amino-phenyl)-4-[(6-methyl-4-phenethylamino-[1,3,5]triazin-2-yl-amino)-methyl]-benzamide]

IC50 (HCT116 cells; HCT-116, Table 5d): 10 µM
Structure (SMILES): COc1cccc(NCc2ccc(/C=C/C(=O)Nc3ccccc3N)cc2)c1 [Cpd 507, N-(2-Amino-phenyl)-3-{4-[(3-methoxy-phenylamino)-methyl]-phenyl}-acrylamide]

IC50 (HCT116 cells; HCT-116, Table 5d): 11 µM
Structure (SMILES): COc1ccccc1NCc1ccc(/C=C/C(=O)Nc2ccccc2N)cc1 [Cpd 508, N-(2-Amino-phenyl)-3-{4-[(2-methoxy-phenylamino)-methyl]-phenyl}-acrylamide]

IC50 (HCT116 cells; HCT-116, Table 5d): 11 µM
Structure (SMILES): Nc1ccccc1NC(=O)/C=C/c1ccc(CNc2ccccc2)cc1 [Cpd 509, N-(2-Amino-phenyl)-3-(4-phenylaminomethyl-phenyl)-acrylamide]

IC50 (HCT116 cells; HCT-116, Table 5d): 6 µM
Structure (SMILES): Nc1ccccc1NC(=O)/C=C/c1ccc2c(c1)-c1ccccc1C2 [Cpd 519]

IC50 (HCT116 cells; HCT-116, Table 5d): 12 µM
Structure (SMILES): COc1ccc(NCc2ccc(/C=C/C(=O)Nc3ccccc3N)cc2)cc1 [Cpd 541, N-(2-Amino-phenyl)-3-{4-[(4-methoxy-phenylamino)-methyl]-phenyl}-acrylamide]
